{"source": "ChEMBL document CHEMBL5370641", "about": "“Structure-Based Optimization and Biological Evaluation of Potent and Selective MMP-7 Inhibitors for Kidney Fibrosis” (J Med Chem, 2023)", "key": {"Matrilysin": {"molecular_target": "T1, Matrilysin (Homo sapiens, UniProt P09237)", "T1 sequence (P09237 whole entry)": "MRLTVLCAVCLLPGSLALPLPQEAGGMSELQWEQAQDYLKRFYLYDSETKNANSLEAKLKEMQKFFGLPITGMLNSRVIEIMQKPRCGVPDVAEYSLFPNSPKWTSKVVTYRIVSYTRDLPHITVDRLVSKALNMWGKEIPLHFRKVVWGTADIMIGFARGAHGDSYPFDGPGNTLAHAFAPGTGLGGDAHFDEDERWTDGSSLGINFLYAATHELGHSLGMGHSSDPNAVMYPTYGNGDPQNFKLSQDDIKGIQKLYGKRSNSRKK", "assay": "Inhibition of recombinant human MMP7 using MOCAc-Pro-Leu-Gly-Leu-A2pr-(Dnp)-Ala-Arg-NH2 as substrate preincubated with compound for 15 mins followed by substrate addition and measured after 2 hrs by fluorescence based analysis"}, "[1]": {"molecular_target": "Matrix metalloproteinase-14 (Homo sapiens, UniProt P50281)", "assay": "Inhibition of recombinant human MMP14 using MOCAc-Lys-Pro-Leu-Gly-Leu-A2pr(Dnp)-Ala-Arg-NH2 as substrate preincubated with compound for 15 mins followed by substrate addition and measured after 1 hrs by fluorescence based analysis"}}, "note": "Numbered stars: 1 amine (or outer) side, 2 acyl side, 3 side chain; on linkers, the order of the positions; unused ones are H or OH. Square brackets hold non-standard residues; d marks the D form. Peptide text beside a SMILES is read from it. * marks the point of attachment. Benzenesulfonyl(4-Cl,3-CF3) = O=S(=O)(c1ccc(Cl)c(C(F)(F)F)c1)*; Phe(4-CF3) = N[C@@H](Cc1ccc(C(F)(F)F)cc1)C(=O)O; Ala(thiazol-2-yl) = N[C@@H](Cc1nccs1)C(=O)O; Phe(4-I) = N[C@@H](Cc1ccc(I)cc1)C(=O)O; γGlu = O=C(O)[C@H](CCC(=O)[*:2])N[*:1]; Phe(2-I) = N[C@@H](Cc1ccccc1I)C(=O)O; hPhe = N[C@@H](CCc1ccccc1)C(=O)O; 2Pal = N[C@@H](Cc1ccccn1)C(=O)O; 3Pal = N[C@@H](Cc1cccnc1)C(=O)O; Tle = CC(C)(C)[C@H](N)C(=O)O; β3hP = O=C(O)C[C@@H]1CCCN1"}
{"smiles": "COc1ccc(C[C@H](NC(=O)CNC(=O)CC[C@H](NS(=O)(=O)c2ccc(Cl)c(C(F)(F)F)c2)C(=O)O)C(=O)N[C@H](C(=O)N2CCC[C@H]2CC(N)=O)C(C)(C)C)cc1", "note": "({Benzenesulfonyl(4-Cl,3-CF3)-γGlu}-GY(Me)[Tle][β3hP]-NH2)", "values": [{"measurement": "IC50", "setting": "Matrilysin", "result": 0.014, "unit": "µM"}, {"measurement": "IC50", "setting": "[1]", "result": 2, "unit": "µM"}]}
{"smiles": "CC(C)(C)[C@H](NC(=O)[C@H](Cc1cccnn1)NC(=O)CNC(=O)CC[C@H](NS(=O)(=O)c1ccc(Cl)c(C(F)(F)F)c1)C(=O)O)C(=O)N1CCC[C@H]1CC(N)=O", "values": [{"measurement": "IC50", "setting": "Matrilysin", "result": 0.006, "unit": "µM"}, {"measurement": "IC50", "setting": "[1]", "result": 8.4, "unit": "µM"}]}
{"smiles": "CC(C)(C)[C@H](NC(=O)[C@H](Cn1ccnn1)NC(=O)CNC(=O)CC[C@H](NS(=O)(=O)c1ccc(Cl)c(C(F)(F)F)c1)C(=O)O)C(=O)N1CCC[C@H]1CC(N)=O", "values": [{"measurement": "IC50", "setting": "Matrilysin", "result": 0.032, "unit": "µM"}, {"measurement": "IC50", "setting": "[1]", "result": 8.3, "unit": "µM"}]}
{"smiles": "CC(C)(C)[C@H](NC(=O)[C@H](Cc1ccccn1)NC(=O)CNC(=O)CC[C@H](NS(=O)(=O)c1ccc(Cl)c(C(F)(F)F)c1)C(=O)O)C(=O)N1CCC[C@H]1CC(N)=O", "note": "({Benzenesulfonyl(4-Cl,3-CF3)-γGlu}-G[2Pal][Tle][β3hP]-NH2)", "values": [{"measurement": "IC50", "setting": "Matrilysin", "result": 0.0019, "unit": "µM"}, {"measurement": "IC50", "setting": "[1]", "result": 3.5, "unit": "µM"}]}
{"smiles": "CC(C)(C)[C@H](NC(=O)[C@H](Cc1ccc(I)cc1)NC(=O)CNC(=O)CC[C@H](NS(=O)(=O)c1ccc(Cl)c(C(F)(F)F)c1)C(=O)O)C(=O)N1CCC[C@H]1CC(N)=O", "note": "({Benzenesulfonyl(4-Cl,3-CF3)-γGlu}-G[Phe(4-I)][Tle][β3hP]-NH2)", "values": [{"measurement": "IC50", "setting": "Matrilysin", "result": 0.0084, "unit": "µM"}, {"measurement": "IC50", "setting": "[1]", "result": 0.69, "unit": "µM"}]}
{"smiles": "CC(C)Cn1cc(-c2ccc(C[C@H](NC(=O)CNC(=O)CC[C@H](NS(=O)(=O)c3ccc(Cl)c(C(F)(F)F)c3)C(=O)O)C(=O)N[C@H](C(=O)N3CCC[C@H]3CC(N)=O)C(C)(C)C)cc2)cn1", "values": [{"measurement": "IC50", "setting": "Matrilysin", "result": 0.023, "unit": "µM"}, {"measurement": "IC50", "setting": "[1]", "result": 46, "unit": "µM"}]}
{"smiles": "CC(C)(C)[C@H](NC(=O)[C@H](Cc1cccnc1)NC(=O)CNC(=O)CC[C@H](NS(=O)(=O)c1ccc(Cl)c(C(F)(F)F)c1)C(=O)O)C(=O)N1CCC[C@H]1CC(N)=O", "note": "({Benzenesulfonyl(4-Cl,3-CF3)-γGlu}-G[3Pal][Tle][β3hP]-NH2)", "values": [{"measurement": "IC50", "setting": "Matrilysin", "result": 0.0017, "unit": "µM"}, {"measurement": "IC50", "setting": "[1]", "result": 2.7, "unit": "µM"}]}
{"smiles": "CC(C)(C)[C@H](NC(=O)[C@H](Cc1ccccc1I)NC(=O)CNC(=O)CC[C@H](NS(=O)(=O)c1ccc(Cl)c(C(F)(F)F)c1)C(=O)O)C(=O)N1CCC[C@H]1CC(N)=O", "note": "({Benzenesulfonyl(4-Cl,3-CF3)-γGlu}-G[Phe(2-I)][Tle][β3hP]-NH2)", "values": [{"measurement": "IC50", "setting": "Matrilysin", "result": 0.0088, "unit": "µM"}, {"measurement": "IC50", "setting": "[1]", "result": 3.4, "unit": "µM"}]}
{"smiles": "CC(C)c1cn(C[C@H](NC(=O)CNC(=O)CC[C@H](NS(=O)(=O)c2ccc(Cl)c(C(F)(F)F)c2)C(=O)O)C(=O)N[C@H](C(=O)N2CCC[C@H]2CC(N)=O)C(C)(C)C)nn1", "values": [{"measurement": "IC50", "setting": "Matrilysin", "result": 0.1, "unit": "µM"}, {"measurement": "IC50", "setting": "[1]", "result": 16, "unit": "µM"}]}
{"smiles": "CC(C)(C)[C@H](NC(=O)[C@H](Cc1ccccc1)NC(=O)CNC(=O)CC[C@H](NS(=O)(=O)c1ccc(Cl)c(C(F)(F)F)c1)C(=O)O)C(=O)N1CCC[C@H]1CC(N)=O", "note": "({Benzenesulfonyl(4-Cl,3-CF3)-γGlu}-GF[Tle][β3hP]-NH2)", "values": [{"measurement": "IC50", "setting": "Matrilysin", "result": 0.013, "unit": "µM"}, {"measurement": "IC50", "setting": "[1]", "result": 3.2, "unit": "µM"}]}
{"smiles": "CC(C)(C)[C@H](NC(=O)[C@H](Cc1nccs1)NC(=O)CNC(=O)CC[C@H](NS(=O)(=O)c1ccc(Cl)c(C(F)(F)F)c1)C(=O)O)C(=O)N1CCC[C@H]1CC(N)=O", "note": "({Benzenesulfonyl(4-Cl,3-CF3)-γGlu}-G[Ala(thiazol-2-yl)][Tle][β3hP]-NH2)", "values": [{"measurement": "IC50", "setting": "Matrilysin", "result": 0.0096, "unit": "µM"}, {"measurement": "IC50", "setting": "[1]", "result": 3.8, "unit": "µM"}]}
{"smiles": "CC(C)(C)[C@H](NC(=O)[C@H](Cc1ccc(C(F)(F)F)cc1)NC(=O)CNC(=O)CC[C@H](NS(=O)(=O)c1ccc(Cl)c(C(F)(F)F)c1)C(=O)O)C(=O)N1CCC[C@H]1CC(N)=O", "note": "({Benzenesulfonyl(4-Cl,3-CF3)-γGlu}-G[Phe(4-CF3)][Tle][β3hP]-NH2)", "values": [{"measurement": "IC50", "setting": "Matrilysin", "result": 0.01, "unit": "µM"}, {"measurement": "IC50", "setting": "[1]", "result": 1.7, "unit": "µM"}]}
{"smiles": "CC(C)(C)[C@H](NC(=O)[C@H](CCc1ccccc1)NC(=O)CNC(=O)CC[C@H](NS(=O)(=O)c1ccc(Cl)c(C(F)(F)F)c1)C(=O)O)C(=O)N1CCC[C@H]1CC(N)=O", "note": "({Benzenesulfonyl(4-Cl,3-CF3)-γGlu}-G[hPhe][Tle][β3hP]-NH2)", "values": [{"measurement": "IC50", "setting": "Matrilysin", "result": 0.08, "unit": "µM"}, {"measurement": "IC50", "setting": "[1]", "result": 4.5, "unit": "µM"}]}
